± gives the expanded uncertainty stated by the source.
Assay: mn = molality of the nth substance listed, in mol/kg
Conditions: 298.15 K, 100 kPa, Liquid, Vibrating tube method

mass density (m1 = 0.5) [kg/m3] | mass density (m1 = 2) [kg/m3] | mass density (m1 = 2.499) [kg/m3] | mass density (m1 = 1.5) [kg/m3] | Structure (SMILES) | other results
– | – | – | – | C[N+](C)(C)C[C@H](O)CC(=O)[O-] [(R)-3-hydroxy-4-(trimethylammonio)butanoate] + O | mass density (m1 = 0.8817): 1023.6 ± 0.21 kg/m3
1019.83 ± 0.11 | 1081.48 ± 0.12 | 1100.25 ± 0.12 | – | [Cl-].[K+] [potassium chloride] + O | mass density (m1 = 0.9998): 1041.41 ± 0.11 kg/m3; mass density (m1 = 1.499): 1062.03 ± 0.12 kg/m3; mass density (m1 = 2.98): 1117.69 ± 0.13 kg/m3
1035.42 ± 0.11 | 1142.48 ± 0.14 | – | 1107.94 ± 0.13 | [Br-].[Na+] [sodium bromide] + O | mass density (m1 = 0.9999): 1072.67 ± 0.12 kg/m3; mass density (m1 = 2.5): 1175.65 ± 0.14 kg/m3; mass density (m1 = 2.999): 1207.24 ± 0.15 kg/m3
– | 1072.27 ± 0.12 | 1089.16 ± 0.12 | 1054.74 ± 0.12 | [Cl-].[Na+] [sodium chloride] + O | mass density (m1 = 1): 1036.18 ± 0.11 kg/m3; mass density (m1 = 3): 1105.67 ± 0.13 kg/m3
